Values quoted from earlier work as cited in PMC8915598.

Assay: not told

Row | SMILES | log partition octanol / water [log10]
1 | CC(=O)Nc1ccc(Cl)cc1 | 2.12
2 | NC(=O)c1ccc(N)cc1 | -0.41
